# Source: US10124064B2, “Antimicrobial compositions of aminoglycosidic antibiotics and zinc ion chelators specifically formulated for enhanced inhibition of bacterial colonization and antibacterial efficacy” (University of Cincinnati, priority 2013, dated 2018)
# System: S. aureus ATCC 6538
# Experiment: Porcine deep partial-thickness wound model inoculated with S. aureus; planktonic (flush) and biofilm (scrub) bacterial counts on day 2
# Format: in vivo, Staphylococcus aureus
# Protocol: Summarily, forty-four deep, partial-thickness wounds were created on the paravertebral area on two pigs. Four wounds each were randomly assigned to eleven treatment groups and inoculated with S. aureus ATCC 6538. Wounds were treated with approximately 200 mg of each treatment. On day 2, wounds were assessed using a flush and scrub technique to recover planktonic and biofilm-associated bacterial count, respectively.
# Swine (2 animals) were used as the experimental animal due to the morphological, physiological, and biochemical similarities between swine skin and human skin.
# • 44 deep partial thickness wounds measuring 10 mm×7 mm×0.5 mm were made in the peravertebral and thoracic areas of each animal • 4 wounds were randomly assigned to each of the 11 treatment groups Inoculation: • 25 μl of inoculum of 10^6 CFU/ml were inoculated into each wound and scrubbed lightly using a sterile Teflon spatula. Experimental Design: Pig 1: Treatment Groups
# • Within 20 minutes of inoculation each wound was treated with the appropriate treatment. Each wound was treated with ≅200 mg of the appropriate treatment (days 0 and 1). • All wounds were covered with polyurethane film dressings Wound Recovery: • A sterile surgical steel cylinder (22 mm inside diameter) was placed over the wound area and 1 ml of all-purpose neutralizer solution was pipetted inside. • The site was gently flushed by pipetting in and out three times to remove the loosely attached bacteria (a), this aliquot represents the planktonic bacteria. • The same wound was then encircled using another sterile cylinder and 1 ml of all-purpose neutralizer solution was again pipetted into the cylinder and this time scrubbed with a sterile Teflon spatula for 30 seconds to remove the firmly attached bacteria (b), this aliquot was aspirated and represents biofilm bacteria.
# [1] = swine wounds, 30000 μM (=15 mg/ml) DTPA used alone, topical, day 2
Substance,reduction of S. aureus counts compared to the untreated group (30000 μM DTPA alone) [%],bacterial counts (planktonic and biofilm) versus untreated control wounds (all concentrations of DTPA alone (30 to 30000 μM)),biofilm count [1] [Log CFU/ml],planktonic bacterial count [1] [Log CFU/ml],reduction in wound bioburden versus DTPA alone (0.1% Gentamicin positive control compared with all DTPA concentrations alone)
diethylenetriamine pentaacetic acid [DTPA],99.96,reduced bacterial counts,6.09±012,5.19±0.29,–
"gentamicin [Gentamicin 0.1%, reference compound]",–,–,–,–,substantially more reduction in wound bioburden than any of the DTPA concentrations alone
